Results published in patent US12227500B2, “Substituted pyrrolo[2,3-b]pyridines for suppressing toxic endoplasmic reticulum stress” (THE TRUSTEES OF COLUMBIA UNIVERSITY IN THE CITY OF NEW YORK, priority 2018, dated 2025).
Several values for one entry are separate records, joined by “and”; a condition that tells them apart may be missing. Equal entries are not always repeated. Where two headings read alike, the source gives them in different places.

Legend:
[1] = In vivo pharmacokinetics, IP injection or oral gavage, 10 mg/kg; parameters: species or system mouse; conditions: for Kp at 3 h: brain/plasma, read-out: Brain/plasma ratio at 3 h; for Cmax: plasma
Protocol: Based on its strong performance in the microsome assay, 12k was selected for further pharmacokinetic analysis in vivo. Compounds 1 and 12k were administered to 8 week-old wild-type […] mice at 10 mg/kg through intraperitoneal (IP) injection or oral gavage (OG). Brains and plasma were collected across 4 time points over 24 h for LC-MS/MS analysis.
Compounds 1 and 12k were dissolved in DMSO to 40 mg/mL. For in vivo administration, the DMSO stock was further diluted to 2 mg/mL in a vehicle containing 40% PEG-400 (Sigma) and 55% of a (2-hydroxypropyl)-beta-cyclodextrin solution (20% in nanopure water, Sigma). Compounds were delivered at 10 mg/kg by intraperitoneal injection or oral gavage to 8 week-old male wild-type C57Bl6J mice (Jackson). After 15 min, 3 h, 8 h or 24h, animals were anesthetized with a mixture of ketamine (100 mg/kg) and xylazine (10 mg/kg), then decapitated to collect trunk blood and dissect fresh brain tissue. Blood samples were treated with EDTA solution (50 mM final concentration) to prevent coagulation and centrifuged for 10 min at 845 rcf at 4° to separate plasma. Fresh brains were lysed in 5 volumes of ddH2O.
(§1) Plasma samples were transferred to Eppendorf tubes (50 μL per sample) and diluted with acetonitrile (200 μL). The samples were sonicated for 1 minute followed by centrifugation at 16,000 rpm for 10 minutes. The supernatant was transferred to another Eppendorf tube and the solvent evaporated overnight. The samples were reconstituted in a mixture of 40 μL acetonitrile and 10 μL water transferred to a sample vial with insert, and analyzed by LC-MS.
(§2) Homogenized brain samples (250 μL) were transferred to Eppendorf tubes and diluted with acetonitrile (750 μL). The samples were sonicated for 1 minute followed by centrifugation at 16,000 rpm for 10 minutes. The supernatant (900 μL) was transferred to another Eppendorf tube and the solvent evaporated overnight. The samples were reconstituted in a mixture of 80 μL acetonitrile and 20 μL water, transferred to a sample vial with insert, and analyzed by LC-MS.
(§3) LC-MS analysis was performed on a platform comprising a Thermo Scientific Dionex Ultimate 3000 and a Bruker amaZon SL equipped with an electrospray ionization source controlled by Bruker Hystar 3.2. The compound concentration in each plasma sample was determined using a calibration curve. Chromatographic separation was performed by injecting 10 μL of the sample onto an Agilent Eclipse Plus C18 column (2.1×50 mm, 3.5 μm) maintained at 20° C. The flow rate was maintained at 400 μL/min. The initial flow conditions were 60% solvent A (water containing 0.1% acetic acid) and 40% solvent B (methanol containing 0.1% acetic acid). Solvent B was raised to 60% over 0.25 minutes and to 70% by 6.75 minutes.

[2] = Plasma and brain concentration after IV injection (FIG. 13B); assay type: in vivo, mouse; conditions: 10 mg/kg
Protocol: Drug concentrations were analyzed by LC-MS.

[3] = Plasma and brain concentration 30 min after IP injection; assay type: in vivo, mouse; conditions: male, C57BL6/J, mouse, mice, ip dosing, 30 minutes; for Kp at 30 min: brain/plasma, read-out: B/P
Protocol: All studies were performed on 6-week old male C57BL6/J mice that were housed in the Columbia University Medical Center facility in a 12h light/dark cycle with access to food and water ad libitum. All animal procedures were approved by the Columbia University IACUC. […] Animals were weighed and injected once intraperitoneally (IP) at the indicated dose (10 or 20 mg/kg). After 30 min, animals were deeply anesthetized with 2.5% Avertin. Whole blood was collected by cardiac puncture in tubes containing 0.5M EDTA as an anticoagulant, and centrifuged for 10 min at 845 rcf at 4° to isolate plasma. Following cardiac puncture, animals were decapitated and brains were dissected and weighed. Brain samples were homogenized with a glass dounce homogenizer in 5 volumes of ddH2O. Brain and plasma samples were snap frozen in liquid nitrogen and stored at −80° C. before further processing.
as §1, with “The plasma” for “Plasma”
as §2, with “The homogenized” for “Homogenized”
as §3

Structure (SMILES) | Oral bioavailability (% F) based on plasma measurements in IP vs. OG-treated animals [1] [%] | Brain AUC ([1]; IP) [ng·h/mL] | Brain mean Cmax ([1]; IP) [µg/kg] | Plasma AUC ([1]; IP) [ng·h/mL] | Brain AUC ([1]; OG) [ng·h/mL] | Brain mean Cmax ([1]; OG) [µg/kg] | Plasma AUC ([1]; OG) [ng·h/mL] | Kp at 3 h ([1]; male, mouse, ip) | Kp at 3 h ([1]; male, mouse, oral, OG) | Cmax ([1]; male, mouse, ip) [ng/mL] | Cmax ([1]; male, mouse, po, OG) [ng/mL] | level in plasma and brain 1 h after injection (LC-MS) [2] | Kp at 30 min ([3]; 10 mg/kg) | Kp at 30 min ([3]; 20 mg/kg) | concentration at 30 min ([3]; 10 mg/kg, read-out: brain) | concentration at 30 min ([3]; 10 mg/kg, read-out: plasma) | concentration at 30 min ([3]; 20 mg/kg, read-out: brain) | concentration at 30 min ([3]; 20 mg/kg, read-out: plasma) | brain Cmax ([1]; IP-injected) | bioavailability ([1]; male, mouse, brain, po, read-out: Oral bioavailability (% F) by comparing brain measurements) [%]
CN1CCN(Cc2ccc(-c3cnc4[nH]cc(-c5ccc6[nH]ccc6c5)c4c3)cc2)CC1 [Compound 1, 3-(1H-Indol-5-yl)-5-(4-((4-methylpiperazin-1-yl)methyl)phenyl)-1H-pyrrolo[2,3-b]pyridine, reference compound] | 46 | 1568 | 208.83 | 7328 | 567.2 | 83.35 | 3401 | 0.25 | 0.18 | 972 | 476 | below the limits of detection | 0.3 | 0.4 | 1010 ng/g and 1.89 µM | 3210 ng/mL and 6 µM | 1410 ng/g and 2.64 µM | 3480 ng/mL and 6.5 µM |  | 
OCCN1CCN(Cc2ccc(-c3cnc4[nH]cc(-c5cccc(Cl)c5)c4c3)cc2)CC1 [Compound 12k, 2-(4-(4-(3-(3-Chlorophenyl)-1H-pyrrolo[2,3-b]pyridin-5-yl)benzyl)piperazin-1-yl)ethan-1-ol] | 73 | 11570 | 1162.23 | 3899 | 8429 | 658.88 | 2785 | 3.91 | 2.58 | 454 | 184 | still detectable | 3.3 | 4 | 1230 ng/g and 2.74 µM | < 375 ng/mL and < 840 nM | 5180 ng/g and 11.6 µM | 1290 ng/mL and 2.88 µM | 1162 ng/g and 2.60 μM | 73
